According to the supplement of paper PMC10307832:

Assays:
Assay in all cases: relative viability (nuclei count vs DMSO), 5 days (fraction); higher = more cells survive
[1] = test system: NCI-H1944
Method in brief: (§1)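 Lung cancer cell lines in 1536-well plates were dosed by pin tool the day after seeding, either with one drug alone or with a fixed anchor-drug dose plus five library-drug doses (not always all listed) in √10 steps. After 5 days, cells were fixed and their nuclei stained in one step (final 0.05% Triton X-100, 1% formaldehyde, 1 ug/ml Hoechst), then counted on 4× images. Relative viability is the nuclei count in treated wells divided by that in vehicle wells. Values are medians of duplicate plates.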

[2] = test system: NCI-H838
Method in brief: as §1

[3] = test system: HCC-78
Method in brief: as §1

[4] = test system: SK-LU-1
Method in brief: as §1

[5] = test system: NCI-H1734
Method in brief: as §1

[6] = test system: EMC-BAC-2
Method in brief: as §1

[7] = test system: UMC-11
Method in brief: as §1

[8] = test system: SW 1573
Method in brief: as §1

[9] = test system: NCI-H441
Method in brief: as §1

[10] = test system: NCI-H522
Method in brief: as §1

[11] = test system: LC-2-ad
Method in brief: as §1

[12] = test system: HOP-62
Method in brief: as §1

[13] = test system: NCI-H2087
Method in brief: as §1

[14] = test system: NCI-H1975
Method in brief: as §1

[15] = test system: NCI-H2347
Method in brief: as §1

[16] = test system: NCI-H2126
Method in brief: as §1

[17] = test system: NCI-H727
Method in brief: as §1

[18] = test system: HCC-366
Method in brief: as §1

[19] = test system: NCI-H2009
Method in brief: as §1

[20] = test system: PC-3 [JPC-3]
Method in brief: as §1

[21] = test system: ChaGo-K-1
Method in brief: as §1

[22] = test system: HCC-44
Method in brief: as §1

[23] = test system: NCI-H1355
Method in brief: as §1

Oc1nc(-c2ccc(C(F)(F)F)cc2)nc2c1CSCC2 [XAV939] + O=C(CCCCCCC(=O)Nc1ccccc1)NO [Vorinostat] (partner 1 µM)
relative viability ([1]; first compound 0.08 µM): 0.55 | relative viability ([1]; first compound 0.253 µM): 0.625 | relative viability ([1]; first compound 0.8 µM): 0.508 | relative viability ([1]; first compound 2.53 µM): 0.354 | relative viability ([2]; first compound 0.08 µM): 0.685 | relative viability ([2]; first compound 0.253 µM): 0.609 | relative viability ([2]; first compound 0.8 µM): 0.658 | relative viability ([2]; first compound 2.53 µM): 0.558 | relative viability ([3]; first compound 0.08 µM): 0.526 | relative viability ([3]; first compound 0.253 µM): 0.453 | relative viability ([3]; first compound 0.8 µM): 0.443 | relative viability ([3]; first compound 2.53 µM): 0.415 | relative viability ([4]; first compound 0.08 µM): 0.872 | relative viability ([4]; first compound 0.253 µM): 0.755 | relative viability ([4]; first compound 0.8 µM): 0.892 | relative viability ([4]; first compound 2.53 µM): 0.87 | relative viability ([5]; first compound 0.08 µM): 0.98 | relative viability ([5]; first compound 0.253 µM): 0.835 | relative viability ([5]; first compound 0.8 µM): 0.757 | relative viability ([5]; first compound 2.53 µM): 0.803 | relative viability ([6]; first compound 0.08 µM): 0.175 | relative viability ([6]; first compound 0.253 µM): 0.447 | relative viability ([6]; first compound 0.8 µM): 0.379 | relative viability ([6]; first compound 2.53 µM): 0.289 | relative viability ([7]; first compound 0.08 µM): 0.364 | relative viability ([7]; first compound 0.253 µM): 0.267 | relative viability ([7]; first compound 0.8 µM): 0.305 | relative viability ([7]; first compound 2.53 µM): 0.274 | relative viability ([8]; first compound 0.08 µM): 0.922 | relative viability ([8]; first compound 0.253 µM): 0.8 | relative viability ([8]; first compound 0.8 µM): 0.542 | relative viability ([8]; first compound 2.53 µM): 0.373 | relative viability ([9]; first compound 0.08 µM): 1.02 | relative viability ([9]; first compound 0.253 µM): 0.822 | relative viability ([9]; first compound 0.8 µM): 1.09 | relative viability ([9]; first compound 2.53 µM): 0.782 | relative viability ([10]; first compound 0.08 µM): 1.17 | relative viability ([10]; first compound 0.253 µM): 0.851 | relative viability ([10]; first compound 0.8 µM): 0.718 | relative viability ([10]; first compound 2.53 µM): 0.846 | relative viability ([11]; first compound 0.08 µM): 0.735 | relative viability ([11]; first compound 0.253 µM): 0.689 | relative viability ([11]; first compound 0.8 µM): 0.705 | relative viability ([11]; first compound 2.53 µM): 0.567 | relative viability ([12]; first compound 0.08 µM): 0.888 | relative viability ([12]; first compound 0.253 µM): 0.525 | relative viability ([12]; first compound 0.8 µM): 0.501 | relative viability ([12]; first compound 2.53 µM): 0.311 | relative viability ([13]; first compound 0.08 µM): 0.978 | relative viability ([13]; first compound 0.253 µM): 0.561 | relative viability ([13]; first compound 0.8 µM): 0.654 | relative viability ([13]; first compound 2.53 µM): 0.594 | relative viability ([14]; first compound 0.08 µM): 0.784 | relative viability ([14]; first compound 0.253 µM): 0.588 | relative viability ([14]; first compound 0.8 µM): 0.673 | relative viability ([14]; first compound 2.53 µM): 0.667 | relative viability ([15]; first compound 0.08 µM): 0.609 | relative viability ([15]; first compound 0.253 µM): 0.496 | relative viability ([15]; first compound 0.8 µM): 0.593 | relative viability ([15]; first compound 2.53 µM): 0.414 | relative viability ([16]; first compound 0.08 µM): 0.835 | relative viability ([16]; first compound 0.253 µM): 0.587 | relative viability ([16]; first compound 0.8 µM): 0.733 | relative viability ([16]; first compound 2.53 µM): 0.564 | relative viability ([17]; first compound 0.08 µM): 1.25 | relative viability ([17]; first compound 0.8 µM): 1 | relative viability ([17]; first compound 2.53 µM): 1.02 | relative viability ([18]; first compound 0.08 µM): 0.398 | relative viability ([18]; first compound 0.253 µM): 0.25 | relative viability ([18]; first compound 0.8 µM): 0.293 | relative viability ([18]; first compound 2.53 µM): 0.189 | relative viability ([19]; first compound 0.08 µM): 0.754 | relative viability ([19]; first compound 0.253 µM): 0.709 | relative viability ([19]; first compound 0.8 µM): 0.743 | relative viability ([19]; first compound 2.53 µM): 0.536 | relative viability ([20]; first compound 0.253 µM): 0.76 | relative viability ([20]; first compound 0.8 µM): 0.769 | relative viability ([20]; first compound 2.53 µM): 0.816 | relative viability ([21]; first compound 0.08 µM): 0.751 | relative viability ([21]; first compound 0.253 µM): 0.707 | relative viability ([21]; first compound 0.8 µM): 0.747 | relative viability ([21]; first compound 2.53 µM): 0.643 | relative viability ([22]; first compound 0.08 µM): 0.981 | relative viability ([22]; first compound 0.253 µM): 0.919 | relative viability ([22]; first compound 0.8 µM): 0.947 | relative viability ([22]; first compound 2.53 µM): 1.04 | relative viability ([23]; first compound 0.08 µM): 0.688 | relative viability ([23]; first compound 0.253 µM): 0.546 | relative viability ([23]; first compound 0.8 µM): 0.552 | relative viability ([23]; first compound 2.53 µM): 0.445
